Results: ChEMBL document CHEMBL1158638, “MMP-13 selective isonipecotamide alpha-sulfone hydroxamates” (Bioorg Med Chem Lett, 2010)

What was measured:
[1] = Selectivity ratio of IC50 for MMP2 to MMP13
Collagenase 3 = Collagenase 3 (Homo sapiens, UniProt P45452)
[2] = biological target: 72 kDa type IV collagenase (Homo sapiens, UniProt P08253); experiment: Inhibition of MMP2
Interstitial collagenase = biological target: T1, Interstitial collagenase (Homo sapiens, UniProt P03956); experiment: Inhibition of MMP1
T1 sequence (P03956 whole entry): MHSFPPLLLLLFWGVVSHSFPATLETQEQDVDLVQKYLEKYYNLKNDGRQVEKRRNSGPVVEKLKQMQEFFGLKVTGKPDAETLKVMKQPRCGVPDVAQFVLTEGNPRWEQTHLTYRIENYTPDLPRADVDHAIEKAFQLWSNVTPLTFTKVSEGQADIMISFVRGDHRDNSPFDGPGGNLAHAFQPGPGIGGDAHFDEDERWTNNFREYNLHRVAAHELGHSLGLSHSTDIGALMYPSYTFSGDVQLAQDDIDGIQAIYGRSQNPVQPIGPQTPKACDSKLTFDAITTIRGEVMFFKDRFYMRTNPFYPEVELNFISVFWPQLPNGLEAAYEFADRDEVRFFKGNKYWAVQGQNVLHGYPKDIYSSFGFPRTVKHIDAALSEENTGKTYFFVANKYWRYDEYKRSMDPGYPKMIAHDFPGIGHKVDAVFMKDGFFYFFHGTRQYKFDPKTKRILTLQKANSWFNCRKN

Neutrophil collagenase = Neutrophil collagenase (Homo sapiens, UniProt P22894); experiment: Inhibition of MMP8
Sequence of Neutrophil collagenase (P22894 whole entry): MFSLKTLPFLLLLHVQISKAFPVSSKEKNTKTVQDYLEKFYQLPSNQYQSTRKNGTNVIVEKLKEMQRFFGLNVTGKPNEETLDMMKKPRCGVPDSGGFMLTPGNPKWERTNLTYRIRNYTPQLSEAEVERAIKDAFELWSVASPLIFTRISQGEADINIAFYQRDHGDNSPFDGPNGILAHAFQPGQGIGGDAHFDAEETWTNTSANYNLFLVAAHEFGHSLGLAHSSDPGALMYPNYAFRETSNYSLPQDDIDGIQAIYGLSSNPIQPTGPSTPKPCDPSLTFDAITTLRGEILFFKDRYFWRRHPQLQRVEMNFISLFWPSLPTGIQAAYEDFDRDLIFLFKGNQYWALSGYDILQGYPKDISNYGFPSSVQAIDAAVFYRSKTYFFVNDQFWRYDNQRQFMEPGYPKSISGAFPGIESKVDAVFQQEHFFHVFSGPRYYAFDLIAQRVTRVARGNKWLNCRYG

[3] = biological target: Matrix metalloproteinase-9 (Homo sapiens, UniProt P14780); experiment: Inhibition of MMP9
Sequence of Matrix metalloproteinase-9 (P14780 whole entry): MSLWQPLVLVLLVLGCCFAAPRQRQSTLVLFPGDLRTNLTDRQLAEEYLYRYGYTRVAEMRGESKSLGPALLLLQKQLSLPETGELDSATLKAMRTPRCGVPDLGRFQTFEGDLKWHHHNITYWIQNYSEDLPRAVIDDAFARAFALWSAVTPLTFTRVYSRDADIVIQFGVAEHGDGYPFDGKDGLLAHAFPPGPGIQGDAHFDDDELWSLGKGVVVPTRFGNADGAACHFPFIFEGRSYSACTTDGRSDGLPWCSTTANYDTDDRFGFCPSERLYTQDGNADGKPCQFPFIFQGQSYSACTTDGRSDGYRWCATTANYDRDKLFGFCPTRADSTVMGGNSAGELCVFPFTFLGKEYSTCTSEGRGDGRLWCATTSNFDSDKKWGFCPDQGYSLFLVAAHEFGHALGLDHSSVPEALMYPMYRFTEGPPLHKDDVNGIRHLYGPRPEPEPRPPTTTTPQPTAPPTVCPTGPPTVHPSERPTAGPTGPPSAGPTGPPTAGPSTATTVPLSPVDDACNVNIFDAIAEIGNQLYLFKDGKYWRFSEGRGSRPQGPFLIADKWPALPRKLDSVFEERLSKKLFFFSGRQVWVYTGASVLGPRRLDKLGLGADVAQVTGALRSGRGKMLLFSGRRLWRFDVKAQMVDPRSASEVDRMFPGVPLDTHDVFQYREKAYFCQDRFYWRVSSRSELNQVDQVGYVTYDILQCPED

[4] = Half life in po dosed rat; format: ADME, organism-based; details: in vivo
Stromelysin-1 = Stromelysin-1 (Homo sapiens, UniProt P08254); experiment: Inhibition of MMP3
Sequence of Stromelysin-1 (P08254 whole entry): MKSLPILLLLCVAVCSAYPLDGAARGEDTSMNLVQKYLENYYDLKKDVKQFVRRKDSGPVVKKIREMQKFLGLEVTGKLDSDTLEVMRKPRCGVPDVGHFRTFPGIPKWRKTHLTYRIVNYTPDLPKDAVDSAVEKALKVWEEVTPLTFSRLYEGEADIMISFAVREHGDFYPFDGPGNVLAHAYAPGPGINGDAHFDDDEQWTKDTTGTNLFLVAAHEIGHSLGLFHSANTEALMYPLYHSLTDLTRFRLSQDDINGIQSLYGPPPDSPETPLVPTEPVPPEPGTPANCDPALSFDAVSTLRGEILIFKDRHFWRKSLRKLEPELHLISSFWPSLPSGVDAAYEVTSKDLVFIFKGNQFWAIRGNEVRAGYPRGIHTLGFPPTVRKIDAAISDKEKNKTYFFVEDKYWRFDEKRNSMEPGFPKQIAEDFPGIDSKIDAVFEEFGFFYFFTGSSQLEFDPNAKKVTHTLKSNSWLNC

[5] = biological target: Matrix metalloproteinase-14 (Homo sapiens, UniProt P50281); experiment: Inhibition of MMP14
[6] = Bioavailability in po dosed rat; format: ADME, organism-based; details: in vivo

Sequence of 72 kDa type IV collagenase (P08253 whole entry): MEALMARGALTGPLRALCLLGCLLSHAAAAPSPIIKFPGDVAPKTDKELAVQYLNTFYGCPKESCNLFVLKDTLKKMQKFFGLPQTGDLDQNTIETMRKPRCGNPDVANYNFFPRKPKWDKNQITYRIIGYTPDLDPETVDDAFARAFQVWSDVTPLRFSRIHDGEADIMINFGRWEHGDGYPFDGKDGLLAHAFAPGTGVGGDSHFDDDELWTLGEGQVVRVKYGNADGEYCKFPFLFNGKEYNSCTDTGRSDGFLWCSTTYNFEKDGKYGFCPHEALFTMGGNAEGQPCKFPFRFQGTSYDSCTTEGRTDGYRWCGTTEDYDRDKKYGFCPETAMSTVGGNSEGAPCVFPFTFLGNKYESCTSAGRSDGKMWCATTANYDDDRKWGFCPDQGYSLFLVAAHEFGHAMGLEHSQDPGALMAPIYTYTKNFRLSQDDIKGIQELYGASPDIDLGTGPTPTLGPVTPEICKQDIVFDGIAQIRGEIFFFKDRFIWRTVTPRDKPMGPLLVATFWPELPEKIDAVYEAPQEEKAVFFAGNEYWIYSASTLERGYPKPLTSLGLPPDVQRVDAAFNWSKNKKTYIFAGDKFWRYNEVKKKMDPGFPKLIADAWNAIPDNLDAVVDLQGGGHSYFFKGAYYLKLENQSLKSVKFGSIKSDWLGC

Structure (SMILES) | Ratio IC50 [1] | IC50 (Collagenase 3) [nM] | IC50 [2] [nM] | also measured
O=C(C1CCN(c2ccc(S(=O)(=O)C3(C(=O)NO)CCOCC3)cc2)CC1)N1CCN(c2ccc(F)cc2)CC1 | 267 |  |  | 
CN(Cc1ccccc1)C(=O)C1CCN(c2ccc(S(=O)(=O)C3(C(=O)NO)CCN(C4CC4)CC3)cc2)CC1 | 175 | 20 | 3500 | 
COCCN1CCN(C(=O)C2CCN(c3ccc(S(=O)(=O)C4(C(=O)NO)CCOCC4)cc3)CC2)CC1 | 156 | 45 | 7000 | 
COCCN1CCC(C(=O)NO)(S(=O)(=O)c2ccc(N3CCC(C(=O)N4CCN(c5cccc(C)c5C)CC4)CC3)cc2)CC1 |  | 70 | 400 | IC50 (Interstitial collagenase): > 10 µM
COc1ccccc1N1CCN(C(=O)C2CCN(c3ccc(S(=O)(=O)C4(C(=O)NO)CCOCC4)cc3)CC2)CC1 | 250 |  |  | 
O=C(C1CCN(c2ccc(S(=O)(=O)C3(C(=O)NO)CCOCC3)cc2)CC1)N1CCN(c2ccccn2)CC1 | 336 |  |  | 
COCCN1CCC(C(=O)NO)(S(=O)(=O)c2ccc(N3CCC(C(=O)N4CC(C)NC(C)C4)CC3)cc2)CC1 (centres undefined) | 34 | 50 | 1700 | 
CC(=O)c1ccc(N2CCN(C(=O)C3CCN(c4ccc(S(=O)(=O)C5(C(=O)NO)CCOCC5)cc4)CC3)CC2)cc1 | 104 |  |  | 
O=C(C1CCN(c2ccc(S(=O)(=O)C3(C(=O)NO)CCOCC3)cc2)CC1)N1CCc2ccccc2C1 | 233 | 9 | 2100 | 
CC(=O)N1CCN(C(=O)C2CCN(c3ccc(S(=O)(=O)C4(C(=O)NO)CCOCC4)cc3)CC2)CC1 | 50 |  |  | 
O=C(C1CCN(c2ccc(S(=O)(=O)C3(C(=O)NO)CCOCC3)cc2)CC1)N1CCN(CCc2ccccc2)CC1 | 36 | 25.1 | 900 | 
C#CCN(C)C(=O)C1CCN(c2ccc(S(=O)(=O)C3(C(=O)NO)CCOCC3)cc2)CC1 | 86 | 24.5 | 2100 | 
C=CCN(C)C(=O)C1CCN(c2ccc(S(=O)(=O)C3(C(=O)NO)CCOCC3)cc2)CC1 | 83 | 35 | 2900 | 
O=C(C1CCN(c2ccc(S(=O)(=O)C3(C(=O)NO)CCOCC3)cc2)CC1)N1CCN(c2cnccn2)CC1 | 34 |  |  | 
CC1CN(C(=O)C2CCN(c3ccc(S(=O)(=O)C4(C(=O)NO)CCOCC4)cc3)CC2)CC(C)N1 (centres undefined) |  |  | 7300 | 
O=C(C1CCN(c2ccc(S(=O)(=O)C3(C(=O)NO)CCOCC3)cc2)CC1)N1CCN(CCO)CC1 | 150 |  |  | 
Cc1ccc(N2CCN(C(=O)C3CCN(c4ccc(S(=O)(=O)C5(C(=O)NO)CCOCC5)cc4)CC3)CC2)c(C)c1 | 459 |  |  | 
COCCN1CCC(C(=O)NO)(S(=O)(=O)c2ccc(N3CCC(C(=O)Nc4ccccc4)CC3)cc2)CC1 |  |  |  | IC50 (Neutrophil collagenase): 10 µM; IC50 [3]: 1.23 µM; IC50 (Interstitial collagenase): 10 µM; half-life [4]: 49.8 min; IC50 (Stromelysin-1): 370 nM; IC50 [5]: 10 µM; bioavailability [6]: 4.2%
C[C@@H]1COC[C@H](C)N1C(=O)C1CCN(c2ccc(S(=O)(=O)C3(C(=O)NO)CCOCC3)cc2)CC1 |  | 18.1 | > 10000 | 
Cc1cccc(N2CCN(C(=O)C3CCN(c4ccc(S(=O)(=O)C5(C(=O)NO)CCOCC5)cc4)CC3)CC2)c1C | 1500 | 4 | 6000 | IC50 (Neutrophil collagenase): > 10 µM; IC50 [3]: > 10 µM; IC50 (Interstitial collagenase): > 10 µM; IC50 (Stromelysin-1): 160 nM; IC50 [5]: > 10 µM
CC(C)N1CCN(C(=O)C2CCN(c3ccc(S(=O)(=O)C4(C(=O)NO)CCOCC4)cc3)CC2)CC1 | 196 |  |  | 
Cc1cccc(N2CCN(C(=O)C3CCN(c4ccc(S(=O)(=O)C5(C(=O)NO)CCN(C6CC6)CC5)cc4)CC3)CC2)c1C |  | 27.7 | 6350 | IC50 (Neutrophil collagenase): 9.4 µM; IC50 [3]: > 10 µM; IC50 (Interstitial collagenase): > 10 µM; IC50 (Stromelysin-1): 550 nM; IC50 [5]: > 10 µM
CN(C)CCN1CCN(C(=O)C2CCN(c3ccc(S(=O)(=O)C4(C(=O)NO)CCOCC4)cc3)CC2)CC1 | > 111 |  | > 10000 | 
COc1cc2c(cc1OC)CN(C(=O)C1CCN(c3ccc(S(=O)(=O)C4(C(=O)NO)CCOCC4)cc3)CC1)CC2 |  |  | 2400 | 
O=C(C1CCN(c2ccc(S(=O)(=O)C3(C(=O)NO)CCOCC3)cc2)CC1)N1CCN(c2ccncc2)CC1 | 58 |  |  | 
O=C(C1CCN(c2ccc(S(=O)(=O)C3(C(=O)NO)CCOCC3)cc2)CC1)N1CCN(c2ccccc2F)CC1 | 209 |  |  | 
O=C(C1CCN(c2ccc(S(=O)(=O)C3(C(=O)NO)CCOCC3)cc2)CC1)N1CCN(c2ncccn2)CC1 | 250 |  |  | 
